{"source": "patent US6673340B1", "about": "“Basement membrane degrading proteases as insect toxins and methods of use for same” (Iowa State University Research Foundation, Inc., priority 1999, dated 2004)", "test_system": "zinc metalloproteases", "test": "Azocoll assay with selective protease inhibitor", "type": "biochemical", "details": "1 mM inhibitor, azocoll assay pH 7.6", "procedure": "Azocoll assays were carried out as described by Fisher and Werb (1995). For assays on medium from cells infected with the viruses expressing the mammalian proteases, all medium samples were concentrated 10-fold except for medium from AcMLF9.STR1-infected cells. Samples for analysis of S. peregrina cathepsin L expression were not concentrated. Aliquots of infected cell medium (2.5 μl for AcMLF9. ScathL-infected cells, 40 μl for all other samples) were mixed with 200 μl of 2 mg/ml azocoll suspended either in 50 mM Tris, pH 7.6-10 mM CaCl2-200 mM NaCl-50 μM ZnSO4 (for detection of stromelysin-1 and gelatinase A activity) or in 0.1 M sodium acetate, pH 5.0 (for detection of cathepsin L activity) in a final volume of 240 μl. A control reaction with sufficient dispase (Boehringer Mannheim, Indianapolis, Ind.) to digest all azocoll in the reaction tube was used as a standard. […] Absorbance of the supernatant was measured at 520 nm for each reaction, and mg azocoll digested/ml medium was calculated based on the absorbance of the dispase control reaction (Fisher, S. J., and Werb, Z. 1995. The catabolism of extracellular matrix components. In “Extracellular Matrix: A Practical Approach” (M. A. Haralson, and J. R. Hassell, Eds.), pp. 261-287. Oxford University Press, New York)."}
{"smiles": "c1cnc2c(c1)ccc1cccnc12", "note": "[1,10-phenanthroline]", "values": [{"measurement": "Inhibition of proteolytic activity in supernatants of stromelysin- and gelatinase-expressing virus infections", "value": "inhibited"}]}
